In patent US8668925B2, “Transdermal delivery of hormones without the need of penetration enhancers” (Bayer Intellectual Property GmbH, priority 2003, dated 2014):

Tests used:
[1] = cited from earlier work
[2] = Serum pharmacokinetics of Ethinylestradiol and Gestodene during two patch treatment cycles; parameters: species or system women; details: female, human, in vivo, topical or ocular, 0.9 mg, AUC(0-[…]) of ethinyl estradiol (EE), mean
Source text: Arcare MA-24A® is a polyisobutylene based adhesive from Adhesive Research.
The treatment phase includes a period of two menstrual cycles. The first treatment in the first cycle began one day after the volunteers started menstruating in this cycle by application of a patch. A total of three test patches were applied in intervals of 7 days between, such as application at days 1, 8 and 15 of the first cycle—each at different application sites—during each treatment cycle. Each patch was worn for 7 days, then replaced with a new patch to complete a total of 21 days of continuous use. This was followed by a 7-day treatment-free interval before the next treatment period started with a total of three patches applied, each applied with an interval of 7 days. If the patches were lost or became more than 40% detached, a new patch was applied.
The AUC was calculated according to the linear trapezoidal rule.
The sampling points were at the day 18 of the last pre-treatment cycle and days 1, 2, 3, 4, 5, 6, 7, 8, 15, 16, 17, 18, 19, 20, 21 and 22 of cycle 1 as well as days 1 (before application of new patch), 2, 3, 4, 5, 6, 7, 8, 15, 16, 17, 18, 19, 20, 21 and 22 of cycle 2.
After incubation and centrifugation, the resultant precipitate was redissolved with NaOH. The assay has a lower limit of quantification of approx. 250 μg/ml.

Row | Compound | Maximal plasma levels ([1]; U.S. Pat. No. 5,376,377, ethylene vinyl acrylate adhesive layer, Gestodene and ethinylestradiol) | maximal plasma levels of Gestodene ([1]; WO 92/07590, transdermal compositions with penetration enhancers) | AUC(0-t) ([2]; Cycle 1, Week 1, test patch) [ng·h/mL] | AUC(0-t) ([2]; Cycle 1, Week 3, test patch) [ng·h/mL] | AUC(0-t) ([2]; Cycle 2, Week 1, test patch) [ng·h/mL] | AUC(0-t) ([2]; Cycle 2, Week 3, test patch) [ng·h/mL]
1 | C#C[C@]1(O)C=C[C@H]2[C@@H]3CCC4=CC(=O)CC[C@@H]4[C@H]3CC[C@@]21CC [Gestodene, 13β-Ethyl-17α-ethynyl-17β-hydroxy-4,15-gonadien-3-one] | about 0.8 ng/ml | about 0.9 ng/ml | – | – | – | –
2 | C#C[C@]1(O)CC[C@H]2[C@@H]3CCc4cc(O)ccc4[C@H]3CC[C@@]21C [ethinyl estradiol, Ethinylestradiol] | – | – | 5.3 | 6.1 | 5.1 | 5.8
